Data set [1] relates to HeLa. Nature of the data set: Cytotoxicity against human HeLa cells assessed as cell growth inhibition measured after 72 hrs by MTT assay. Format: functional, cell-based. The following applies: pooled result: one value given for 3 cell lines, strains, targets or settings.
The test system of data set [2] is MDA-MB-231. Nature of the data set: Cytotoxicity against human MDA-MB-231 cells assessed as cell growth inhibition measured after 72 hrs by MTT assay. Format: functional, cell-based. The settings on record: MDA-MB-231, 72 h. (In general: Tetrazolium dyes change colour on reduction, which living cells bring about.)
The test system of data set [3] is HepG2. Nature of the data set: Cytotoxicity against human HepG2 cells assessed as cell growth inhibition measured after 72 hrs by MTT assay. Format: functional, cell-based. The settings on record: HepG2, 72 h.
The subject of data set [4] is MCF7. In words: Cytotoxicity against human MCF7 cells assessed as cell growth inhibition measured after 72 hrs by MTT assay. Format: functional, cell-based. The following applies: MCF7, 72 h.
The subject of a further data set is COLO 205. In words: Antiproliferative activity against human COLO 205 cells assessed as cell growth inhibition by MTT assay. The data set is classed as functional, cell-based.
In data set [5] the test system is MCF7. In words: Antiproliferative activity against human MCF7 cells assessed as cell growth inhibition by MTT assay. Format: functional, cell-based.
Data set [6] relates to A549. In words: Antiproliferative activity against human A549 cells assessed as cell growth inhibition by MTT assay. Format: functional, cell-based.
In another data set the test system is HEp-2. Nature of the data set: Cytotoxicity against human HEp-2 cells assessed as cell growth inhibition by MTT assay. The data set is classed as functional, cell-based.
A further data set relates to A498. In words: Antiproliferative activity against human A498 cells assessed as cell growth inhibition measured after 72 hrs by SRB assay. The data set is classed as functional, cell-based. The following applies: A498, 72 h. On the technique in general: The SRB assay estimates cell density from bound dye.
Data set [7] concerns A549. Nature of the data set: Antiproliferative activity against human A549 cells assessed as cell growth inhibition measured after 72 hrs by SRB assay. The data set is classed as functional, cell-based. The settings on record: A549, 72 h.
In data set [8] the test system is MCF7. In words: Cytotoxicity against human MCF7 cells assessed as cell growth inhibition by MTT assay. The data set is classed as functional, cell-based.
In data set [9] the test system is HeLa. Nature of the data set: Cytotoxicity against human HeLa cells assessed as cell growth inhibition by MTT assay. Format: functional, cell-based.
The test system of data set [10] is MDA-MB-231. In words: Antiproliferative activity against human MDA-MB-231 cells assessed as cell growth inhibition measured after 48 hrs by SRB assay. Format: functional, cell-based. The following applies: for GI50: MDA-MB-231, time 48 hrs.
For data set [11], the system named is MCF7. Nature of the data set: Antiproliferative activity against human MCF7 cells assessed as cell growth inhibition measured after 48 hrs by SRB assay. The settings on record: for GI50: MCF7, time 48 hrs. The data set is classed as functional, cell-based.
The subject of data set [12] is A549. In words: Cytotoxicity against human A549 cells assessed as cell growth inhibition measured after 24 hrs by MTT assay. Format: functional, cell-based. The settings on record: A549, 24 h, pooled result: one value given for 4 cell lines, strains, targets or settings.
Data set [13] relates to MCF7. Nature of the data set: Cytotoxicity against human MCF7 cells assessed as cell growth inhibition measured after 48 hrs by MTT assay. The data set is classed as functional, cell-based. The following applies: MCF7, 48 h.
The nature of data set [14]: Cytotoxicity against human RPE-1 cells assessed as cell growth inhibition measured after 48 hrs by MTT assay. The data set is classed as toxicity, cell-based. The following applies: RPE-1 (TERT-RPE1) cells.
The subject of data set [15] is HCT-116. Nature of the data set: Cytotoxicity against human HCT-116 cells assessed as cell growth inhibition measured after 48 hrs by MTT assay. The data set is classed as functional, cell-based. The settings on record: HCT-116, 48 h.
For data set [16], the system named is HepG2. In words: Cytotoxicity against human HepG2 cells assessed as cell growth inhibition measured after 48 hrs by MTT assay. Format: functional, cell-based. The following applies: HepG2, 48 h.
Data set [17] is described as follows: Cytotoxicity against human A875 cells assessed as cell growth inhibition measured after 72 hrs by MTT assay. The data set is classed as functional, cell-based. The following applies: A875, 72 h.
Data set [18] in a line: Cytotoxicity against green monkey MARC145 cells assessed as cell growth inhibition measured after 72 hrs by MTT assay. Format: toxicity, cell-based, Chlorocebus aethiops.
For data set [19], the system named is HCT-116. Nature of the data set: Antiproliferative activity against human HCT-116 cells assessed as cell growth inhibition by MTT assay. Format: functional, cell-based.
A further data set concerns SK-OV-3. Nature of the data set: Antiproliferative activity against human SK-OV-3 cells assessed as cell growth inhibition by MTT assay. The data set is classed as functional, cell-based.
In the next data set the test system is K562. Nature of the data set: Antiproliferative activity against human K562 cells assessed as cell growth inhibition by MTT assay. The data set is classed as functional, cell-based.
Data set [20] relates to MDA-MB-231. Nature of the data set: Antiproliferative activity against human MDA-MB-231 cells assessed as cell growth inhibition by MTT assay. Format: functional, cell-based.
The test system of data set [21] is MDA-MB-231. Nature of the data set: Antiproliferative activity against human MDA-MB-231 cells assessed as cell growth inhibition measured after 72 hrs by MTT assay. The following applies: MDA-MB-231, 72 h. The data set is classed as functional, cell-based.
In data set [22] the test system is HCT-116. Nature of the data set: Antiproliferative activity against human HCT-116 cells assessed as cell growth inhibition measured after 72 hrs by MTT assay. The data set is classed as functional, cell-based. The following applies: HCT-116, 72 h.
In data set [23] the test system is A549. In words: Antiproliferative activity against human A549 cells assessed as cell growth inhibition measured after 72 hrs by MTT assay. The data set is classed as functional, cell-based. The following applies: A549, 72 h.
The test system of a further data set is SW1990. Nature of the data set: Anticancer activity against human SW1990 cells assessed as cell growth inhibition measured after 72 hrs by Cell-Titre Glo luminescent cell viability assay. The following applies: SW1990, 72 h. Format: functional, cell-based.
A further data set relates to ASPC1. In words: Anticancer activity against human ASPC1 cells assessed as cell growth inhibition measured after 72 hrs by Cell-Titre Glo luminescent cell viability assay. The settings on record: ASPC1, 72 h. Format: functional, cell-based.
In data set [24] the test system is HeLa. In words: Antiproliferative activity against human HeLa cells assessed as cell growth inhibition by MTT assay. Format: functional, cell-based.
A further data set deals with 786-0. Nature of the data set: Antiproliferative activity against human 786-0 cells assessed as cell growth inhibition measured after 48 hrs by SRB assay. Format: functional, cell-based. The following applies: 786-0, 48 h.
In a further data set the test system is OVCAR-3. Nature of the data set: Antiproliferative activity against human OVCAR-3 cells assessed as cell growth inhibition measured after 48 hrs by SRB assay. The following applies: OVCAR-3, 48 h. Format: functional, cell-based.
The subject of a further data set is OVCAR-4. In words: Antiproliferative activity against human OVCAR-4 cells assessed as cell growth inhibition measured after 48 hrs by SRB assay. The following applies: OVCAR-4, 48 h. Format: functional, cell-based.
The test system of the next data set is SW-620. Nature of the data set: Antiproliferative activity against human SW-620 cells assessed as cell growth inhibition measured after 48 hrs by SRB assay. The data set is classed as functional, cell-based. The settings on record: SW-620, 48 h.
The test system of the next data set is Hs-578T. In words: Antiproliferative activity against human Hs-578T cells assessed as cell growth inhibition measured after 48 hrs by SRB assay. The data set is classed as functional, cell-based.
A further data set deals with UO-31. In words: Antiproliferative activity against human UO-31 cells assessed as cell growth inhibition measured after 48 hrs by SRB assay. The settings on record: UO-31, 48 h. Format: functional, cell-based.
In a further data set the test system is SNB-75. In words: Antiproliferative activity against human SNB-75 cells assessed as cell growth inhibition measured after 48 hrs by SRB assay. Format: functional, cell-based. The following applies: SNB-75, 48 h.
In a further data set the test system is HOP-62. Nature of the data set: Antiproliferative activity against human HOP-62 cells assessed as cell growth inhibition measured after 48 hrs by SRB assay. The settings on record: HOP-62, 48 h. Format: functional, cell-based.

Each structure is given as a SMILES string. pIC50: −log10 of the molar value. A value given as a limit tells only on which side of the number the result lay.

By pIC50 is commonly meant −log10 of the IC50, conventionally taken in molar units. `COc1cc(NC(=O)Nc2cc(C)c3[nH]c4ccc(Br)cc4c3c2C)cc(OC)c1OC`: the pIC50 with HeLa [1], in the data set on MDA-MB-231 [2], in the data set on HepG2 [3] and in the data set with MCF7 [4] was 5.71 each time.

As to `COc1ccc2[nH]c3c(C)cc(-c4cc(-c5ccc(F)cc5)nc(N)n4)c(C)c3c2c1`, the pIC50 in the data set on COLO 205, in the data set on MCF7 [5] and in the data set with A549 [6] was 7.00 each time.

On to `Cc1c2ccncc2c(C)c2c1[nH]c1ccccc12` [ELLIPTECINE], for which the pIC50 was 5.98 with HeLa [1]; 5.01 in the data set on HEp-2; 5.98 with MDA-MB-231 [2]; 5.76 with A498; 6.07 with A549 [7]; 5.98 with HepG2 [3]. For the same compound, the figures for the pIC50 in the data set with MCF7 [4], in the data set on MCF7 [8] and in the data set on HeLa [9] were 5.98, 5.01 and 5.01, respectively.

The GI50 is the concentration that inhibits growth by half. On to `O=C(Cn1c2ccccc2c2ccccc21)NNC(c1ccc([N+](=O)[O-])cc1)N1CCNCC1` (stereo not given), for which the GI50 in the data set on MDA-MB-231 [10] and with MCF7 [11] was below 10000 nM throughout.

Regarding `COc1cc(-c2cc(-c3ccc4c(c3)c3ccccc3n4-c3nc(-c4ccc(Cl)cc4)ns3)on2)cc(OC)c1OCc1cc(-c2ccncc2)no1`, in the data set with A549 [12], the pIC50 was 8.00.

One may read the IC50 as the concentration that inhibits the measured activity by half. As for `CCn1c2ccccc2c2cc(NC(=O)c3c(N)n[nH]c3Nc3ccc(Cl)cc3)ccc21`, the pIC50 with MCF7 [13], in the data set on HCT-116 [15] and in the data set on HepG2 [16] was 5.53 each time. For the same compound, the IC50 at 48 h in data set [14] is above 100000 nM.

Consider `O=c1[nH]cc(F)c(=O)[nH]1` [FLUOROURACIL], for which the pIC50 (in [17]; with HepG2 [3]) was 4.14 each time. Besides, the IC50 at 72 h in data set [18] was found to be 72300 nM.

For the compound `O=Cc1c[nH]c2c1ccc1c3ccccc3n(CCCC(=O)NCCn3ccn4c5ccccc5cc34)c12`, the pIC50 in the data set with HCT-116 [19], in the data set with SK-OV-3, in the data set on K562, with MCF7 [5] and in the data set with MDA-MB-231 [20] was 5.05 throughout.

As for `CCn1c2ccccc2c2cc(NC(=O)c3c(N)n[nH]c3Nc3ccccc3)ccc21`, the pIC50 in the data set with MCF7 [13], in the data set on HCT-116 [15] and in the data set with HepG2 [16] was 5.53 throughout. Also, the IC50 at 48 h in [14] is above 100000 nM.

`CC1CCCCN1CC(O)Cn1c2ccc(Cl)cc2c2cc(Cl)ccc21` (stereo not given): the pIC50 in the data set on MDA-MB-231 [21], with HCT-116 [22] and with A549 [23] was 5.15 throughout.

Regarding `Nc1ccn([C@@H]2O[C@H](CO)[C@@H](O)C2(F)F)c(=O)n1` [GEMCITABINE], the pIC50 with SW1990 was 4.40; in the data set on ASPC1 it was 4.45.

For `Oc1c(C(c2ccc(Br)cc2)N2CCCC2)ccc2[nH]c3ccccc3c12` (stereo not given), the pIC50 in the data set on HeLa [24] and in the data set on MDA-MB-231 [20] was 5.27 throughout.

With `Cc1c(C(=O)NCCc2c[nH]c3ccccc23)ccc2c3ccccc3n(C)c12`, the pIC50 (in [17]; in the data set with HepG2 [3]) was below 4.27 each time. In addition, in data set [18], the IC50 at 72 h was above 53800 nM.

Turning to `CCCCCCn1c2ccccc2c2cc(/C=N/NC(=O)c3ccncc3)ccc21`, the negative-log IC50 (pIC50) with SW1990 and in the data set on ASPC1 was 5.47 each time.

For `O=C(CCCn1c2ccc(Br)cc2c2cc(Br)ccc21)NCCN1CCNCC1`, the GI50 in the data set with MDA-MB-231 [10] stood at 4700 nM; in the data set with MCF7 [11], 8000 nM.

Turning to `Cc1c2ccncc2c(/C=C/C(C)NC=O)c2c1[nH]c1ccccc12` (stereo not given), the pIC50 in the data set on 786-0 was 5.90; in the data set on MDA-MB-231 [10] (MDA-MB-231, 48 h) it was 5.90; with OVCAR-3, 5.90; in the data set with OVCAR-4, 5.90; in the data set with SW-620 it was 5.90; with Hs-578T, 5.90. Also, the pIC50 in the data set on MCF7 [11] (MCF7, 48 h) was 5.90; in the data set with UO-31, 5.90; in the data set on SNB-75 it was 5.90; in the data set on HOP-62 it was 5.90.

With `COc1cc(-c2cc(COc3c(OC)cc(-c4cc(-c5ccc6c(c5)c5ccccc5n6-c5nc(-c6ccc(Cl)cc6)ns5)on4)cc3OC)on2)cc(OC)c1OC`, the pIC50 in the data set on A549 [12] is 7.68.

The record behind these values is ChEMBL document CHEMBL5126512, “Current status of carbazole hybrids as anticancer agents” (Eur J Med Chem, 2022).
